Data reported in patent US20040180855A1, “Methods of treating thrombosis with reduced risk of increased bleeding times” (priority 2003, published 2004).

How the values were obtained:
[1] = tested on: renal cortex bleeding time; experiment: Renal cortex bleeding time (RCBT) model; format: in vivo; conditions: rat, i.v. 12+12 and 24+24 mg/kg+mg/kg/hr, pre- vs post-treatment, FIG. 5
Procedure: Experimental Bleeding Time Two models of bleeding time were performed, namely, a renal cortex bleeding model (using template incision of the renal cortex), and a mesenteric artery bleeding model (using severance of small mesenteric arteries).
In the renal cortex bleeding time (RCBT) model, both kidneys were exposed by a midline abdominal incision, and the renal capsules were removed to expose the bare renal cortex which was superfused with Ringer's solution maintained at 37° C. […] While observing under 3×-binocular magnifier, the time in sec from injury until bleeding stopped was recorded. Three bleeding times were determined on the right kidney before, and on the left kidney 15 min after, the start of test article infusion. […]
Statistical Analysis In the venous and arterial thrombosis procedures, treatment effects on thrombus weight, baseline blood flow, and average blood flow during thrombosis were determined by analysis of variance with Dunnett's test for comparison to the vehicle group. […] Treatment effects on bleeding times were determined by analysis of variance with Dunnett's test for comparison to the vehicle group. Both post-treatment and pre-treatment bleeding times and the relative bleeding time increases in sec were analyzed. […]

[2] = tested on: thrombosis and bleeding time in anesthetized rats; experiment: Differential effect on thrombosis inhibition and bleeding time prolongation (FIG. 7); format: in vivo, rat; conditions: versus thrombin and FXa inhibitors (16A, 16B)
Procedure: FIG. 7 reports an analysis of the differential effect on thrombosis inhibition and bleeding time prolongation in anesthetized rats for the Factor XIa inhibitor, as compared with the “direct acting” thrombin and FXa active site inhibitors, namely, compounds 16A and 16B (thrombin and FXa active site inhibitors). The thrombin inhibitor (open symbols), FXa inhibitor (dotted symbols) and FXIa inhibitor (line symbols) were tested for effects on arterial thrombosis (squares), venous thrombosis (triangles) and bleeding time (circles) in rat models. Compounds were administered as loading plus sustaining infusion and the total dose is given on the x-axis.

CC(C)(C)NC(=O)N1CCN(C(=O)N2C(=O)[C@H](CCCNC(=N)N)[C@H]2C(=O)O)CC1 [Example 4]
effect on renal cortex bleeding times [1]: no effect | separation between bleeding time prolongation and efficacy in venous and arterial thrombosis [2]: substantially greater separation
